{
  "source": "ChEMBL document CHEMBL4800730",
  "about": "(2021)",
  "key": {"[1]": {"assay": "NanoBRET assay (AKT1)", "details": "Homo sapiens"}, "[2]": {"molecular_target": "Tyrosine-protein kinase ABL1 (Homo sapiens) (UniProt P00519)", "assay": "ABL1 SelectScreen Kinase panel (LifeTechnologies)", "details": "Compound concentration 1.0 uM"}, "[3]": {"molecular_target": "Aurora kinase B (Homo sapiens) (UniProt Q96GD4)", "sequence (Q96GD4 whole entry)": "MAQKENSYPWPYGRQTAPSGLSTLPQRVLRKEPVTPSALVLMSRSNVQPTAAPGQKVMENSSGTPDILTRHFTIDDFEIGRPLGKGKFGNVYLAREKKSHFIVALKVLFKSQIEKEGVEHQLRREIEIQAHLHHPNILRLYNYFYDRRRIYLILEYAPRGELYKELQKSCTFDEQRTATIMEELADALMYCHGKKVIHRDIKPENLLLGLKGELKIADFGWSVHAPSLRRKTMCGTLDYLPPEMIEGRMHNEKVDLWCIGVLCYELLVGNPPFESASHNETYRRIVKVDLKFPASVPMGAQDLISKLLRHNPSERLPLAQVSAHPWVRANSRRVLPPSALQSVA", "assay": "AURKB (Aurora B) SelectScreen Kinase panel (LifeTechnologies)", "details": "Compound concentration 1.0 uM"}, "[4]": {"molecular_target": "Cytoplasmic tyrosine-protein kinase BMX (Homo sapiens) (UniProt P51813)", "sequence (P51813 whole entry)": "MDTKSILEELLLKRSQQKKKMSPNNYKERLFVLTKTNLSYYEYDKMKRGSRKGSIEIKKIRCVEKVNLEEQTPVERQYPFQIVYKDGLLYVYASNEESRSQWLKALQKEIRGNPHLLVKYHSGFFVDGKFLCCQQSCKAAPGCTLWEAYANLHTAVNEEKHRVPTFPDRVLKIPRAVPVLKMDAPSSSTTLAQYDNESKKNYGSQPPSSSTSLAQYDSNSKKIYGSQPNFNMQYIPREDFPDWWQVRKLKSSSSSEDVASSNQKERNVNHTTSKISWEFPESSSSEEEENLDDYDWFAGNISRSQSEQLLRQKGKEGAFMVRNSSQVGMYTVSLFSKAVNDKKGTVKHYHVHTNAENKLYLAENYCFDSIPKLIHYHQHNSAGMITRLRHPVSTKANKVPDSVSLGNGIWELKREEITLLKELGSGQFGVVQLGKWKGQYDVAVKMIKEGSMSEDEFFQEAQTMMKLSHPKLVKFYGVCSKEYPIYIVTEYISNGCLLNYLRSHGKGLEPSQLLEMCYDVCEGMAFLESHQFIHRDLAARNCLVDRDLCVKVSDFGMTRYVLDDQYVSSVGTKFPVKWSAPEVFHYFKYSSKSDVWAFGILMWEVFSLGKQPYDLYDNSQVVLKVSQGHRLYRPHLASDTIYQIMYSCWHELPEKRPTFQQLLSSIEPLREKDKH", "assay": "BMX SelectScreen Kinase panel (LifeTechnologies)", "details": "Compound concentration 1.0 uM"}, "[5]": {"molecular_target": "Calcium/calmodulin-dependent protein kinase type 1D (Homo sapiens) (UniProt Q8IU85)", "assay": "CAMK1D (CaMKI delta) SelectScreen Kinase panel (LifeTechnologies)", "details": "Compound concentration 1.0 uM"}, "[6]": {"molecular_target": "Serine/threonine-protein kinase Chk2 (Homo sapiens) (UniProt O96017)", "assay": "CHEK2 (CHK2) SelectScreen Kinase panel (LifeTechnologies)", "details": "Compound concentration 1.0 uM"}, "[7]": {"molecular_target": "Receptor-type tyrosine-protein kinase FLT3 (Homo sapiens) (UniProt P36888)", "assay": "FLT3 SelectScreen Kinase panel (LifeTechnologies)", "details": "Compound concentration 1.0 uM"}, "[8]": {"molecular_target": "Rhodopsin kinase GRK7 (Homo sapiens) (UniProt Q8WTQ7)", "assay": "GRK7 SelectScreen Kinase panel (LifeTechnologies)", "details": "Compound concentration 1.0 uM"}, "[9]": {"molecular_target": "Glycogen synthase kinase-3 beta (Homo sapiens) (UniProt P49841)", "assay": "GSK3B (GSK3 beta) SelectScreen Kinase panel (LifeTechnologies)", "details": "Compound concentration 1.0 uM"}, "[10]": {"molecular_target": "Insulin-like growth factor 1 receptor (Homo sapiens) (UniProt P08069)", "assay": "IGF1R SelectScreen Kinase panel (LifeTechnologies)", "details": "Compound concentration 1.0 uM"}, "[11]": {"molecular_target": "Tyrosine-protein kinase ITK/TSK (Homo sapiens) (UniProt Q08881)", "assay": "ITK SelectScreen Kinase panel (LifeTechnologies)", "details": "Compound concentration 1.0 uM"}, "[12]": {"molecular_target": "Mitogen-activated protein kinase kinase kinase kinase 5 (Homo sapiens) (UniProt Q9Y4K4)", "assay": "MAP4K5 (KHS1) SelectScreen Kinase panel (LifeTechnologies)", "details": "Compound concentration 1.0 uM"}, "[13]": {"molecular_target": "Mitogen-activated protein kinase 3 (Homo sapiens) (UniProt P27361)", "assay": "MAPK3 (ERK1) SelectScreen Kinase panel (LifeTechnologies)", "details": "Compound concentration 1.0 uM"}, "[14]": {"molecular_target": "MAP kinase-activated protein kinase 2 (Homo sapiens) (UniProt P49137)", "assay": "MAPKAPK2 SelectScreen Kinase panel (LifeTechnologies)", "details": "Compound concentration 1.0 uM"}, "[15]": {"molecular_target": "MAP kinase-activated protein kinase 3 (Homo sapiens) (UniProt Q16644)", "sequence (Q16644 whole entry, looked up)": "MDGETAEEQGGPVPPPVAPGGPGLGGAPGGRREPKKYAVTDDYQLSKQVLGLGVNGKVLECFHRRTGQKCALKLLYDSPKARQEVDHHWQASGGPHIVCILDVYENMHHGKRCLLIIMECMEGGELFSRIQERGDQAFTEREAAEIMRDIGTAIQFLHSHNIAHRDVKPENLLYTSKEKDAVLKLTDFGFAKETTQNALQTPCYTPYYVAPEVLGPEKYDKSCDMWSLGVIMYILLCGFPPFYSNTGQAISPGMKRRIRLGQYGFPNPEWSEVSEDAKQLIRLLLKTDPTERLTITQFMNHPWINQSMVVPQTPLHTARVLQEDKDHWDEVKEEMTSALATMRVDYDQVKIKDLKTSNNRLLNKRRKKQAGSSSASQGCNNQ", "assay": "MAPKAPK3 SelectScreen Kinase panel (LifeTechnologies)", "details": "Compound concentration 1.0 uM"}, "[16]": {"molecular_target": "Serine/threonine-protein kinase MARK1 (Homo sapiens) (UniProt Q9P0L2)", "assay": "MARK1 (MARK) SelectScreen Kinase panel (LifeTechnologies)", "details": "Compound concentration 1.0 uM"}, "[17]": {"molecular_target": "Serine/threonine-protein kinase MARK2 (Homo sapiens) (UniProt Q7KZI7)", "assay": "MARK2 SelectScreen Kinase panel (LifeTechnologies)", "details": "Compound concentration 1.0 uM"}, "[18]": {"molecular_target": "Serine/threonine-protein kinase pim-1 (Homo sapiens) (UniProt P11309)", "sequence (P11309 whole entry, looked up)": "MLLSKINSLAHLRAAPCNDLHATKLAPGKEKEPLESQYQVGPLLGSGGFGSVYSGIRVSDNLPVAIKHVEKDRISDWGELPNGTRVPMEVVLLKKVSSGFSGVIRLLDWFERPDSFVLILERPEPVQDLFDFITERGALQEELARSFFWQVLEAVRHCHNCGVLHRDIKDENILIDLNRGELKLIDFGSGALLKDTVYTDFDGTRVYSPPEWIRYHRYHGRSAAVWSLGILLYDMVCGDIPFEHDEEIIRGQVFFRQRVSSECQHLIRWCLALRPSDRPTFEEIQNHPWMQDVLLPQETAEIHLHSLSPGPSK", "assay": "PIM1 SelectScreen Kinase panel (LifeTechnologies)", "details": "Compound concentration 1.0 uM"}, "[19]": {"molecular_target": "Protein kinase C beta type (Homo sapiens) (UniProt P05771)", "assay": "PRKCB2 (PKC beta II) SelectScreen Kinase panel (LifeTechnologies)", "details": "Compound concentration 1.0 uM"}, "[20]": {"molecular_target": "Protein kinase C delta type (Homo sapiens) (UniProt Q05655)", "assay": "PRKCD (PKC delta) SelectScreen Kinase panel (LifeTechnologies)", "details": "Compound concentration 1.0 uM"}, "[21]": {"molecular_target": "cAMP-dependent protein kinase catalytic subunit PRKX (Homo sapiens) (UniProt P51817)", "assay": "PRKX SelectScreen Kinase panel (LifeTechnologies)", "details": "Compound concentration 1.0 uM"}, "[22]": {"molecular_target": "Proto-oncogene tyrosine-protein kinase receptor Ret (Homo sapiens) (UniProt P07949)", "assay": "RET SelectScreen Kinase panel (LifeTechnologies)", "details": "Compound concentration 1.0 uM"}, "[23]": {"molecular_target": "Rho-associated protein kinase 1 (Homo sapiens) (UniProt Q13464)", "sequence (Q13464 2-1354 limits assumed)": "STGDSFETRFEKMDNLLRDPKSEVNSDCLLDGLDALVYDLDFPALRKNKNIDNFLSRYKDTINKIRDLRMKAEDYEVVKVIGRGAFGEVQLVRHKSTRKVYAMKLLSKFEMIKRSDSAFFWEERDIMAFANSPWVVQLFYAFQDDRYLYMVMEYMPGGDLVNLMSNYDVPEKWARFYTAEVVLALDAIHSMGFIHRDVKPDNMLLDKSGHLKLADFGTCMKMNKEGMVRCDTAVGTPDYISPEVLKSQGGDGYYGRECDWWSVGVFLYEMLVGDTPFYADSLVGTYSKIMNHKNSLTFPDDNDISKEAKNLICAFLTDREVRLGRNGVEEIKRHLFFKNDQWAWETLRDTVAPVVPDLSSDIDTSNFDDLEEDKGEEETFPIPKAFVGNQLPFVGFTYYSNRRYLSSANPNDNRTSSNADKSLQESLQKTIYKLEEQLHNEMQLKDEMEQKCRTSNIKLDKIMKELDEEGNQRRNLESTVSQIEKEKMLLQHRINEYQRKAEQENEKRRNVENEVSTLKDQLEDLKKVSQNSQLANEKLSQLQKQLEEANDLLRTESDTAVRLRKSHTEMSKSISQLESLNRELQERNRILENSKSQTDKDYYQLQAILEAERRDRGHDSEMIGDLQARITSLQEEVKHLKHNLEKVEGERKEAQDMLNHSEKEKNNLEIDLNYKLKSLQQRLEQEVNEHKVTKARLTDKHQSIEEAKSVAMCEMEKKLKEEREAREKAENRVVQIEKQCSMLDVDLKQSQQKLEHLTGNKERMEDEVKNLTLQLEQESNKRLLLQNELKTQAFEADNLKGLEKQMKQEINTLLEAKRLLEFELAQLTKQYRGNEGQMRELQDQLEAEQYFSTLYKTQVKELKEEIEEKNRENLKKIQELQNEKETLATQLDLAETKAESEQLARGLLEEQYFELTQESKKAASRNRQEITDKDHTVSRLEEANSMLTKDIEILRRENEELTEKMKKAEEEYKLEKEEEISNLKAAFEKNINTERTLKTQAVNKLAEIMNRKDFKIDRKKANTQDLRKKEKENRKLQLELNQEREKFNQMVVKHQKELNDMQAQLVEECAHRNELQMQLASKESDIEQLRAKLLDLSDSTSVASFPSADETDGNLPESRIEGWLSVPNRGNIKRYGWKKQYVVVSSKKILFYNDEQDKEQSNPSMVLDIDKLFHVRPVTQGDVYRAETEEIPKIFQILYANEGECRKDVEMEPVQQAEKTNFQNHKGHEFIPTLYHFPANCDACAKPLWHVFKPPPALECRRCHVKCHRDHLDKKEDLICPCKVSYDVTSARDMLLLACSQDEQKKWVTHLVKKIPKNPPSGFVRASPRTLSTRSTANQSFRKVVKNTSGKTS", "assay": "ROCK1 SelectScreen Kinase panel (LifeTechnologies)", "details": "Compound concentration 1.0 uM"}, "[24]": {"molecular_target": "Rho-associated protein kinase 2 (Homo sapiens) (UniProt O75116)", "assay": "ROCK2 SelectScreen Kinase panel (LifeTechnologies)", "details": "Compound concentration 1.0 uM"}, "[25]": {"molecular_target": "Ribosomal protein S6 kinase alpha-2 (Homo sapiens) (UniProt Q15349)", "assay": "RPS6KA2 (RSK3) SelectScreen Kinase panel (LifeTechnologies)", "details": "Compound concentration 1.0 uM"}, "[26]": {"molecular_target": "Ribosomal protein S6 kinase alpha-5 (Homo sapiens) (UniProt O75582)", "assay": "RPS6KA5 (MSK1) SelectScreen Kinase panel (LifeTechnologies)", "details": "Compound concentration 1.0 uM"}, "[27]": {"molecular_target": "Ribosomal protein S6 kinase alpha-6 (Homo sapiens) (UniProt Q9UK32)", "assay": "RPS6KA6 (RSK4) SelectScreen Kinase panel (LifeTechnologies)", "details": "Compound concentration 1.0 uM"}, "[28]": {"molecular_target": "Serine/threonine-protein kinase Sgk1 (Homo sapiens) (UniProt O00141)", "assay": "SGK (SGK1) SelectScreen Kinase panel (LifeTechnologies)", "details": "Compound concentration 1.0 uM"}, "[29]": {"molecular_target": "Proto-oncogene tyrosine-protein kinase Src (Homo sapiens) (UniProt P12931)", "sequence (P12931 2-536 limits assumed)": "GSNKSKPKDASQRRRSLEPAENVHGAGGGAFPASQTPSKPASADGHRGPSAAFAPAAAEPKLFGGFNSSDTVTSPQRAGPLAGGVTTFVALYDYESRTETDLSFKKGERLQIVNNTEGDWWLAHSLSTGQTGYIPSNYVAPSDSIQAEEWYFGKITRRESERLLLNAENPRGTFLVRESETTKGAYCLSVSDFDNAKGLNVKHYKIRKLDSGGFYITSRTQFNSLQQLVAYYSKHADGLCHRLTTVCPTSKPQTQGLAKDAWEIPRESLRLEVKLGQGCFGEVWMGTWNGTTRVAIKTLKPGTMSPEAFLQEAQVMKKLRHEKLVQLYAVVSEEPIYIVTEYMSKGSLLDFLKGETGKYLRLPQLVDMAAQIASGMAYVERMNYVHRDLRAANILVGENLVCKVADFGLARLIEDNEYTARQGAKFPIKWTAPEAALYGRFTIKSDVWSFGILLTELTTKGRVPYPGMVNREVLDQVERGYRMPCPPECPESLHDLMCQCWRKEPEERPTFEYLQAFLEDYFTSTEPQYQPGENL", "assay": "SRC SelectScreen Kinase panel (LifeTechnologies)", "details": "Compound concentration 1.0 uM"}, "[30]": {"molecular_target": "Angiopoietin-1 receptor (Homo sapiens) (UniProt Q02763)", "assay": "TEK (Tie2) SelectScreen Kinase panel (LifeTechnologies)", "details": "Compound concentration 1.0 uM"}, "[31]": {"molecular_target": "5-hydroxytryptamine receptor 3A (Homo sapiens) (UniProt P46098)", "sequence (P46098 whole entry)": "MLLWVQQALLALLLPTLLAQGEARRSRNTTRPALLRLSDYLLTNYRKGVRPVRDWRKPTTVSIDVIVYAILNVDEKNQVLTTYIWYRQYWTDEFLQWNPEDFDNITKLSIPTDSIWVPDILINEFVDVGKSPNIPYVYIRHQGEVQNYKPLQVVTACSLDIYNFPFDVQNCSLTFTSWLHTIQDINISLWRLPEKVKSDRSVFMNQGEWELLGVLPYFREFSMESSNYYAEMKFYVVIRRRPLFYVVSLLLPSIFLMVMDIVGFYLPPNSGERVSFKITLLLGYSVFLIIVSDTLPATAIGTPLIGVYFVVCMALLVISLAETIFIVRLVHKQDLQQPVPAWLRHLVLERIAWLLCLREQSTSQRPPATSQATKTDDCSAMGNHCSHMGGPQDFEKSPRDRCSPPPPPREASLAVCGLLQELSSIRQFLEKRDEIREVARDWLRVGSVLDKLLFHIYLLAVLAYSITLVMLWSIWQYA", "details": "Compound concentration 10.0 uM"}, "[32]": {"molecular_target": "5-hydroxytryptamine receptor 5A (Homo sapiens) (UniProt P47898)", "details": "Compound concentration 10.0 uM"}, "[33]": {"molecular_target": "D(2) dopamine receptor (Homo sapiens) (UniProt P14416)", "sequence (P14416 whole entry)": "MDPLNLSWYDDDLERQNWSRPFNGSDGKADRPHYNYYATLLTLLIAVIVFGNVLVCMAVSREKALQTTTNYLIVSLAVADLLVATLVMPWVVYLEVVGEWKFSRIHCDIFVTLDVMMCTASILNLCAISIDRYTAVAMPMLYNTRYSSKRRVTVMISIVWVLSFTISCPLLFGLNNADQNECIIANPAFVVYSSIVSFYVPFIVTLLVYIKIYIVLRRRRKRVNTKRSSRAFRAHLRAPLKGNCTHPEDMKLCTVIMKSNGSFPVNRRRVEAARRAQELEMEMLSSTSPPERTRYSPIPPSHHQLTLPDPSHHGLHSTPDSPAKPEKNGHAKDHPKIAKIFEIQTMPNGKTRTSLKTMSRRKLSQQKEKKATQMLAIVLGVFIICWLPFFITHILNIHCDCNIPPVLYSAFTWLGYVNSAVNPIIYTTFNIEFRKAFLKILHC", "details": "Compound concentration 10.0 uM"}, "[34]": {"molecular_target": "D(4) dopamine receptor (Homo sapiens) (UniProt P21917)", "sequence (P21917 whole entry)": "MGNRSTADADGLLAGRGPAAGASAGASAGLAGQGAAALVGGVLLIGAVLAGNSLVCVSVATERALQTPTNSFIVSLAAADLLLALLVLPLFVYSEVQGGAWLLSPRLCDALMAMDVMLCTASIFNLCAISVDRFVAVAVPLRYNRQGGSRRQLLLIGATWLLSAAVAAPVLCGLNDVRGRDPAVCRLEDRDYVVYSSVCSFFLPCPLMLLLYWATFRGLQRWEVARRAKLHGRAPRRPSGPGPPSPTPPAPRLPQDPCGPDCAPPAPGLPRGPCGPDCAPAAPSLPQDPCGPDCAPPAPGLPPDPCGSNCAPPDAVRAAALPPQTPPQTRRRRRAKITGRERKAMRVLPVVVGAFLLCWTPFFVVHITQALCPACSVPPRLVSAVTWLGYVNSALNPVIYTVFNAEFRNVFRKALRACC", "details": "Compound concentration 10.0 uM"}, "[35]": {"molecular_target": "Histamine H1 receptor (Homo sapiens) (UniProt P35367)", "details": "Compound concentration 10.0 uM"}, "Histamine H2 receptor": {"molecular_target": "Histamine H2 receptor (Homo sapiens, UniProt P25021)", "details": "Compound concentration 10.0 uM"}, "[36]": {"molecular_target": "Histamine H3 receptor (Homo sapiens) (UniProt Q9Y5N1)", "details": "Compound concentration 10.0 uM"}, "[37]": {"molecular_target": "Histamine H4 receptor (Homo sapiens) (UniProt Q9H3N8)", "details": "Compound concentration 10.0 uM"}, "[38]": {"molecular_target": "Alpha-2B adrenergic receptor (Homo sapiens) (UniProt P18089)", "details": "Compound concentration 10.0 uM"}, "[39]": {"molecular_target": "Beta-1 adrenergic receptor (Homo sapiens) (UniProt P08588)", "details": "Compound concentration 10.0 uM"}, "[40]": {"molecular_target": "Muscarinic acetylcholine receptor M3 (Homo sapiens) (UniProt P20309)", "details": "Compound concentration 10.0 uM"}, "[41]": {"molecular_target": "Muscarinic acetylcholine receptor M5 (Homo sapiens) (UniProt P08912)", "details": "Compound concentration 10.0 uM"}, "[42]": {"molecular_target": "GABA-A receptor; anion channel (Rattus norvegicus) (UniProt O09028+P15431+P18506+P18508+P19969+P20236+P23574+P23576+P28471+P28473+P30191+P62813+P63079+P63138+Q91ZM7+Q9ES14)", "details": "Compound concentration 10.0 uM"}, "[43]": {"molecular_target": "Alpha-1D adrenergic receptor (Homo sapiens) (UniProt P25100)", "details": "Compound concentration 10.0 uM"}},
  "note": "Activity calls are given as the source filed them. The rule behind the calls is not given here.",
  "data": [
    {"compound": "C=CC(=O)Nc1ccc2[nH]c(=O)n(C3CCN(Cc4ccc(-c5nc6cc[nH]c(=O)c6cc5-c5ccccc5)cc4)CC3)c2c1", "note": "[Borussertib]", "values": [
      {"measurement": "EC50", "setting": "[1]", "result": "26 nM (active)"},
      {"measurement": "IC50", "setting": "[1]", "result": "21 nM (active)"},
      {"measurement": "inhibition", "setting": "[2]", "result": 2, "unit": "%"},
      {"measurement": "inhibition", "setting": "[3]", "result": 7, "unit": "%"},
      {"measurement": "inhibition", "setting": "[4]", "result": 7, "unit": "%"},
      {"measurement": "inhibition", "setting": "[5]", "result": 9, "unit": "%"},
      {"measurement": "inhibition", "setting": "[6]", "result": 4, "unit": "%"},
      {"measurement": "inhibition", "setting": "[7]", "result": 17, "unit": "%"},
      {"measurement": "inhibition", "setting": "[8]", "result": -6, "unit": "%"},
      {"measurement": "inhibition", "setting": "[9]", "result": 20, "unit": "%"},
      {"measurement": "inhibition", "setting": "[10]", "result": -4, "unit": "%"},
      {"measurement": "inhibition", "setting": "[11]", "result": -1, "unit": "%"},
      {"measurement": "inhibition", "setting": "[12]", "result": 37, "unit": "%"},
      {"measurement": "inhibition", "setting": "[13]", "result": -3, "unit": "%"},
      {"measurement": "inhibition", "setting": "[14]", "result": 30, "unit": "%"},
      {"measurement": "inhibition", "setting": "[15]", "result": 17, "unit": "%"},
      {"measurement": "inhibition", "setting": "[16]", "result": -7, "unit": "%"},
      {"measurement": "inhibition", "setting": "[17]", "result": -2, "unit": "%"},
      {"measurement": "inhibition", "setting": "[18]", "result": 0, "unit": "%"},
      {"measurement": "inhibition", "setting": "[19]", "result": 9, "unit": "%"},
      {"measurement": "inhibition", "setting": "[20]", "result": -8, "unit": "%"},
      {"measurement": "inhibition", "setting": "[21]", "result": 3, "unit": "%"},
      {"measurement": "inhibition", "setting": "[22]", "result": 7, "unit": "%"},
      {"measurement": "inhibition", "setting": "[23]", "result": 9, "unit": "%"},
      {"measurement": "inhibition", "setting": "[24]", "result": -3, "unit": "%"},
      {"measurement": "inhibition", "setting": "[25]", "result": 14, "unit": "%"},
      {"measurement": "inhibition", "setting": "[26]", "result": 2, "unit": "%"},
      {"measurement": "inhibition", "setting": "[27]", "result": 14, "unit": "%"},
      {"measurement": "inhibition", "setting": "[28]", "result": 20, "unit": "%"},
      {"measurement": "inhibition", "setting": "[29]", "result": 10, "unit": "%"},
      {"measurement": "inhibition", "setting": "[30]", "result": 13, "unit": "%"},
      {"measurement": "inhibition", "setting": "[31]", "result": 30.2, "unit": "%"},
      {"measurement": "inhibition", "setting": "[32]", "result": 19.4, "unit": "%"},
      {"measurement": "inhibition", "setting": "[33]", "result": 22.7, "unit": "%"},
      {"measurement": "inhibition", "setting": "[34]", "result": 10, "unit": "%"},
      {"measurement": "inhibition", "setting": "[35]", "result": 23.8, "unit": "%"},
      {"measurement": "inhibition", "setting": "Histamine H2 receptor", "result": 65.1, "unit": "%"},
      {"measurement": "inhibition", "setting": "[36]", "result": 6.51, "unit": "%"},
      {"measurement": "inhibition", "setting": "[37]", "result": 31.3, "unit": "%"},
      {"measurement": "inhibition", "setting": "[38]", "result": 4.03, "unit": "%"},
      {"measurement": "inhibition", "setting": "[39]", "result": -0.86, "unit": "%"},
      {"measurement": "inhibition", "setting": "[40]", "result": 5.83, "unit": "%"},
      {"measurement": "inhibition", "setting": "[41]", "result": 11.8, "unit": "%"},
      {"measurement": "inhibition", "setting": "[42]", "result": 12.3, "unit": "%"},
      {"measurement": "inhibition", "setting": "[43]", "result": 22.1, "unit": "%"}
    ]}
  ]
}
